Like-named read-outs stand apart in the source and are kept apart here.
How the values were obtained:
[1] = biological target: T1, A2A adenosine receptors (PC12 cells) (Rattus norvegicus, UniProt P30543); test: cAMP accumulation in PC12 cells
Description: Effects of adenosine receptor agonists on cAMP content in intact PC12 cells. […] Cyclic AMP levels were determined as described under “Methods”. Values represent mean±SEM of results of triplicate samples from three experiments. […] Values represent mean±SEM of triplicate determinants from one representative experiment.
Briefly, PC12 cells were rinsed three times with Hanks' balanced saline solution (HBSS), detached using a cell lifter, and pelleted by centrifugation at 500 g for 5 minutes. Aliquots of the cell suspension (0.1 to 0.2 mg protein) were placed in microfuge tubes with 250 μL of HBSS containing rolipram (50 μmol/L) to inhibit phosphodiesterases that degrade cAMP_and warmed to 37° C. Appropriate drugs were added to the cell suspensions, and incubations were allowed to continue for 10 minutes. Tubes were placed in a boiling water bath for 5 minutes to terminate the incubation. The samples were then cooled to room temperature, diluted by the addition of 1 mL of 10 mmol/L Tris-HCl buffer at pH 7.4, and then centrifuged for 2 minutes at 13000 g.
The samples were then incubated at 4° C. for 16 hours. At the end of the incubation, 70 μL of a 50% (wt/vol) hydroxyapatite suspension was added to each tube. The suspensions were gently agitated and then incubated for 10 minutes at 4° C. Antibody-bound radioactivity adsorbed to hydroxyapatite was collected onto glass fiber filters by vacuum filtration using a Brandel cell harvester. Radioactivity retained by the filter was counted in a gamma counter. […] The amount of cAMP present in samples was calculated based on a standard curve using known amounts of cAMP.

[2] = biological target: T1, A2A adenosine receptors (PC12 cells); test: Rate of decline of agonist-stimulated cAMP in PC12 cells after A2A antagonist SCH58261; conditions: agonist 1 μM, after addition of SCH58261 (20 μM)
[3] = biological target: T2, human A1 adenosine receptors (Homo sapiens, UniProt P30542); test: Competitive radioligand binding, [3H]CPX, CHO-hA1AdoR membranes; conditions: [3H]CPX
T2 construct: expressed in transfected cells
T2 sequence (P30542 1-326): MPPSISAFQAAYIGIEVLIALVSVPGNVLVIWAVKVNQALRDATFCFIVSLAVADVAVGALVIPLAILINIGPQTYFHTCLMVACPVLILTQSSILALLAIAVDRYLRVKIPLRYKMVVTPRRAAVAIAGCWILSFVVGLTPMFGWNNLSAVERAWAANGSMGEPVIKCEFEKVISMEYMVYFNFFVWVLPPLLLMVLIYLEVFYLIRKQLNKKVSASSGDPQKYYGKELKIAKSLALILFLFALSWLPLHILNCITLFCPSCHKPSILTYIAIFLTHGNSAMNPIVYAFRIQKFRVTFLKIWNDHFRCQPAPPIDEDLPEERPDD
Description: The cell suspensions were homogenized and centrifuged at 48,000g for 15 minutes. The pellets were washed three times by re-suspension in ice-cold Tris-HCl buffer and centrifugation. The final pellet was re-suspended in Tris-HCl, aliquoted and frozen at −80° C. until used for receptor binding assays.

[4] = test system: rat isolated perfused heart; test: Coronary conductance / coronary perfusion pressure in isolated perfused rat hearts; conditions: Rattus norvegicus
Description: Briefly, rats of either sex weighing 230-260 grams were anesthetized by intraperitoneal injection of a mixture of ketamine (100 mg/ml) and xylazine (20 mg/ml). The chest of each rat was opened and the heart removed, and rinsed in ice-cold modified Krebs-Henseleit (K-H) solution containing NaCl 117.9, KCl 4.5, CaCl2 2.5, MgSO4 1.18, KH2PO4 1.18, pyruvate 2.0 mmo/L. The aorta was cannulated and the heart was perfused at a flow rate of 10 ml/min with modified K-H solution. The K-H solution (pH 7.4) was gassed continuously with 95% O2 and 5% CO2 and warmed to 35±0.5° C. The heart was electrically paced at a fixed cycle length of 240 ms (250 beats/min) using a bipolar electrode placed in the left atrium. The electrical stimuli were generated by a Grass stimulator (Model S48, W. Warwick, R.I.) and delivered through a Stimuli Isolation Unit (Model SIU5, Astro-Med, Inc., NY) as square-wave pulses of 3-msec in duration and with an amplitude of at least twice the threshold intensity.
The identity of the adenosine receptor subtype (A1 or A2A) mediating the coronary vasodilation was determined.
Coronary perfusion pressure (CPP) was measured using a pressure transducer that was connected to the aortic cannula via a T-connector positioned approximately 3 cm above the heart. CPP was monitored throughout an experiment and recorded either on a chart recorder (Gould Recorder 2200S, Valley View, Ohio) or a computerized recording system (PowerLab/4S, ADInstruments Pty Ltd, Australia). Only hearts with CPP ranging from 60 to 85 mmHg (in the absence of drugs) were used in the study. CC conductance (in ml/min/mmHg) was calculated as the ratio between coronary perfusion rate (10 ml/min) and CPP.

[5] = test system: rat isolated perfused heart; test: Reversal time of coronary vasodilation in rat isolated perfused hearts; conditions: bolus, rat isolated perfused heart;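 also: each agonist bolused at its minimal concentration giving equal maximal coronary conductance rise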
Description: FIG. 10. Reversal of effect of agonist stimulation on CC. […] CC was measured at 8, 16 and 24 minutes after administration (FIG. 10A). […] R and N are the correlation coefficient and number of agonists, respectively.
The relationship between the affinity of agonists for the A2A receptor and the rate of reversal of agonist-mediated responses (coronary vasodilation in heart and cAMP accumulation in PC12 cells) upon termination of drug administration were determined. […] The duration of the coronary vasodilation in isolated rat hearts caused by adenosine, the CVT compounds, and other agonists measured as the time to 50% and 90% (t0.5 and t0.9, respectively) reversal of the increases in coronary conductance after termination of drug administration are summarized in Table 4.

A2A adenosine receptors [6] = biological target: A2A adenosine receptors (Sus scrofa, UniProt K9IW67); test: Competitive radioligand binding, [3H]ZM241385, pig striatum membranes
Description: Membranes were also obtained from porcine striatial cells as follows. […] The homogenate was filtered through cotton gauze and centrifuged at 48,000g for 15 minutes at 4° C. […] The final pellet was frozen at −80° C. until used for receptor binding assays.

[7] = biological target: human A2A adenosine receptors (Homo sapiens, UniProt P29274); test: Competitive radioligand binding, [3H]ZM241385, HEK-hA2AAdoR membranes; conditions: HEK-hA2AAdoR
Description: Each point represents the mean±SEM of triplicates pooled from at least three experiments.
ZM241385 was purchased from Tocris Cookson Ltd (Langford, Bristol, UK).
Competitive radiolabeling binding assays were performed to determine the binding affinities of the compounds of the invention for the adenosine receptor subtypes, A1, A2A, A2B and A3. Briefly, membrane suspensions, obtained from cells expressing either adenosine receptor subtypes A1, A2A, A2B or A3were incubated for 2 hours at room temperature in 50 mmol/L Tris-HCl buffer (pH 7.4) containing ADA (1U/mL). […] At the end of the incubation, free radioligand was separated from membrane-bound radioligand by filtration through Whatman GF/C glass fiber filters using a Brandel tissue harvester (Gaithersburg, Md.). Triplicate determinations were performed for each concentration of unlabelled compound.

A2A adenosine receptors [8] = biological target: A2A adenosine receptors (Rattus norvegicus, UniProt P30543); test: Competitive radioligand binding, [3H]ZM241385, PC12 cell membranes; conditions: PC12 cells (A2A)
Description: Rat pheochromocytoma PC12 cells were obtained from the American Type Culture Collection and grown in DMEM with 5% fetal bovine serum, 10% horse serum, 0.5 mmol/L L-glutamine, 100 U/mL penicillin, 0.1 mg/l mL streptomycin, and 2.5 μg/mL amphotericin.
Cell membranes were harvested from the cell lines by detaching cells from the culture plates into ice-cold 50 mmol/L Tris-HCl buffer (pH 7.4). The cell suspensions were homogenized and centrifuged at 48,000g for 15 minutes. The pellets were washed three times by re-suspension in ice-cold Tris-HCl buffer and centrifugation. The final pellet was re-suspended in Tris-HCl, aliquoted and frozen at −80° C. until used for receptor binding assays.
Briefly, membrane suspensions, obtained from cells expressing either adenosine receptor subtypes A1, A2A, A2B or A3were incubated for 2 hours at room temperature in 50 mmol/L Tris-HCl buffer (pH 7.4) containing ADA (1U/mL). […] At the end of the incubation, free radioligand was separated from membrane-bound radioligand by filtration through Whatman GF/C glass fiber filters using a Brandel tissue harvester (Gaithersburg, Md.). Triplicate determinations were performed for each concentration of unlabelled compound.

[9] = Coronary blood flow and reversal time, intracoronary infusion in open-chest anesthetized pigs; assay type: in vivo
Description: The magnitude of the effect of A2A adenosine receptor agonists on coronary dilation and the duration of the effect was determined in pigs weighing 22-27 kg. […] In addition, animals were used in accordance with the guidelines of the University of Kentucky Institutional Animal Care and Use Protocol.
Anesthesia was maintained with additional sodium pentobarbital (1.5-2 mg/kg, i.v.) every 15-20 minutes. Animals were ventilated via a tracheotomy tube using a mixture of room air and 100% O2. Tidal volume, respiratory rate and fraction of O2 in inspired air were adjusted to maintain arterial blood gas (ABG) and pH values. […] Lactate Ringers solution was administered via an ear or femoral vein as an initial bolus of 300-400 ml followed by a continuous infusion at a rate of 5-7 ml/kg/hr. A catheter was inserted into the femoral artery to monitor arterial blood pressure.
The heart was exposed through a median sternotomy and suspended in a pericardial cradle. Left ventricular pressure (LVP) was measured with a 5F high fidelity pressure sensitive tip transducer (Millar Instruments, Houston, Tex.) placed in the left ventricular cavity via an apical incision and secured with a purse string suture. A segment of the left anterior descending coronary artery (LAD), proximal to the origin of the first diagonal branch, was dissected free of surrounding tissue. A transit time perivascular flow probe (Transonic Systems Inc., Ithaca, N.Y.) was placed around this segment to measure CBF. Proximal to the flow probe, a 24-gauge modified angiocatheter was inserted for intracoronary infusions. […] The A2A adenosine receptors agonists were administered intracoronary.
Relationship between affinity of various agonists for A2A adenosine receptor and the reversal time of their effect to increase coronary conductance was determined in pigs. Each experiment was preceded by a 30-minute stabilization period following the completion of all instrumentation of the animal. Baseline hemodynamic data were then recorded and an intracoronary infusion of an A2A Adenosine receptors agonist was initiated. Each infusion was maintained for 4-5 minutes to allow LAD CBF to reach a steady-state, after which the infusion was terminated. The times to recovery of CBF by 50% (t0.5) and 90% (t0.9) of the difference from peak effect to baseline CBF were recorded. Ten to 15 minutes after CBF returned to pre-drug values a second infusion with a different agonist was started. […] Hemodynamic measurements were made prior to and following the initiation of the phenylephrine infusion. The phenylephrine infusion rate was adjusted during and following the infusions of the adenosine receptor agonists to maintain arterial blood pressure within 5 mmHg of pre-infusion values. The effect of a maximum of three different agonists was determined in each experiment.

[10] = read-out: pKi ± SEM, CHO-hA1AdoR (converted)
[11] = read-out: EC50, Coronary Conductance (Rat Isolated Heart)
[12] = read-out: pEC50 ± SEM, Coronary Conductance (Rat Isolated Heart) (converted)
[13] = [3H]ZM241385, Gpp(NH)p present, read-out: Ki, Pig Strialum (A2A)

human A2A adenosine receptors, sequence (P29274 whole entry): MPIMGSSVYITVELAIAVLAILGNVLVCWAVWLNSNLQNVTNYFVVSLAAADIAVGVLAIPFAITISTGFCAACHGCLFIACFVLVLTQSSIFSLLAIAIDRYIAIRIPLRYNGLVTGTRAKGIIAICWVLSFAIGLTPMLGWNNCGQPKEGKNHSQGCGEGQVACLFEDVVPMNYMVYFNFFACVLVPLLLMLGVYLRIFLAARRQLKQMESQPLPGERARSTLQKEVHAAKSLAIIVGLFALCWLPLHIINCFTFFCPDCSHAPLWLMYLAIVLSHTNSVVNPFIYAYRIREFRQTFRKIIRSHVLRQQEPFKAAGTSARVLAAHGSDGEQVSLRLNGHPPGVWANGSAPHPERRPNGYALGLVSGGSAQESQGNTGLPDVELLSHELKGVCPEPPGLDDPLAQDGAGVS
A2A adenosine receptors (Sus scrofa, UniProt K9IW67), sequence (K9IW67 1-409): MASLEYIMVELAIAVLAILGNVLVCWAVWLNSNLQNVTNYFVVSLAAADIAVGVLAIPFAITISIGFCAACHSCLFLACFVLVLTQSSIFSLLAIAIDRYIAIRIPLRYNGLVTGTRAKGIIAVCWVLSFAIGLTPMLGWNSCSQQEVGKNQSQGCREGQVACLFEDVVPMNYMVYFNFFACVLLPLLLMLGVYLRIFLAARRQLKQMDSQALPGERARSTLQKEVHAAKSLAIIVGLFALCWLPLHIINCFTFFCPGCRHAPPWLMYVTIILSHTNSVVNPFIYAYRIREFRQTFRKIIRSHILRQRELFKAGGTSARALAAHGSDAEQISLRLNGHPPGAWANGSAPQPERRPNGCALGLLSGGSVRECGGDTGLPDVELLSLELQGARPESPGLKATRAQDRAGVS
T1 sequence (P30543 whole entry): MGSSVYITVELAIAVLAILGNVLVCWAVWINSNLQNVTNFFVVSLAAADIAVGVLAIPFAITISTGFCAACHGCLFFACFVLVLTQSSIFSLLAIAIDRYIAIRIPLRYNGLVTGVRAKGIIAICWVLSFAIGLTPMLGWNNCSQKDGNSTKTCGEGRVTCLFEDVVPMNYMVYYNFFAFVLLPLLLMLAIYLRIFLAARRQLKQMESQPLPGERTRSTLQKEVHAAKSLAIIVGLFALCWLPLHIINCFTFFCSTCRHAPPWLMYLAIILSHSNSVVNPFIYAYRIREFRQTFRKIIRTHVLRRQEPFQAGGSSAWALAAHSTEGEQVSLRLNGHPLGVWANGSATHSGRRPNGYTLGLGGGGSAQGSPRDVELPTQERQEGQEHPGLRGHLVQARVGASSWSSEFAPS
A2A adenosine receptors (Rattus norvegicus, UniProt P30543), sequence (P30543 whole entry, the tested form may be a part): as the sequence (P30543 whole entry) above

Nc1nc(C#CCOc2ccccc2)nc2c1ncn2C1O[C@@H](CO)[C@H](O)[C@@H]1O (stereo partly drawn) [CVT-2995]
EC50 ([1]; EC50, cAMP Accumulation (PC12 cells)): 6.6 nM
EC50 ([1]; pEC50 ± SEM, cAMP Accumulation (PC12 cells)): 1.51 nM
t0.5, rate of decline of cAMP accumulated [2]: 3.9 ± 0.6 min
Ki ([3]; read-out: Ki, CHO-hA1AdoR): 866 nM
Ki [3, 10]: 851 nM
EC50 [4, 11]: 0.68 nM
EC50 [4, 12]: 0.676 nM
t0.5, time to 50% reversal of the increase in coronary conductance [5]: 17.5 ± 1.2 min
t0.9, time to 90% reversal of the increase in coronary conductance [5]: 23.2 ± 2.1 min
Ki (A2A adenosine receptors [6]; [13]): 14.4 nM
Ki (A2A adenosine receptors [6]; [3H]ZM241385, Gpp(NH)p present, read-out: pKi ± SEM, Pig Strialum (A2A) (converted)): 13.8 nM
Ki ([7]; Ki, [3H]ZM241385): 305 nM
Ki ([7]; pKi ± SEM, [3H]ZM241385): 302 nM
Ki (A2A adenosine receptors [8]; Ki, [3H]ZM241385): 53 nM

Nc1nc(-c2cnn(Cc3ccccc3)c2)nc2c1ncn2C1O[C@@H](CO)[C@H](O)[C@@H]1O (stereo partly drawn) [CVT-3032]
EC50 [1]: 613 nM
agonist behaviour in PC12 cells [1]: partial A2A agonists
Emax ([1]; PC-12, read-out: maximal response of cAMP accumulation, % of that induced by CGS21680): 65%
Ki ([3]; read-out: Ki, CHO-hA1AdoR): 6350 nM
Ki [3, 10]: 6030 nM
EC50 [4, 11]: 66.5 nM
EC50 [4, 12]: 66.1 nM
t0.5, time to 50% reversal of the increase in coronary conductance [5]: 4.1 ± 0.3 min
t0.9, time to 90% reversal of the increase in coronary conductance [5]: 9.8 ± 1.4 min
Ki (A2A adenosine receptors [6]; [13]): 1590 nM
Ki ([7]; Ki): 13700 nM
Ki ([7]; pKi ± SEM): 13500 nM
CBF (fold-increase) ([9]; 30 ug/kg/min intracoronary): 3.78 ± 0.70 fold
t0.5 reversal of increase in coronary blood flow ([9]; 30 ug/kg/min intracoronary): 2.3 ± 0.6 min
t0.9 reversal of increase in coronary blood flow ([9]; 30 ug/kg/min intracoronary): 9.6 ± 1.0 min
Ki (A2A adenosine receptors [8]; Ki): 5520 nM

Nc1nc(N/N=C/C2CCCCC2)nc2c1ncn2[C@@H]1O[C@H](CO)[C@@H](O)[C@H]1O [WRC0470, 2-cyclohexylmethylidenehydrazinoadenosine, reference compound]
Ki ([3]; read-out: Ki, CHO-hA1AdoR): 7280 nM
Ki [3, 10]: 6920 nM
EC50 [4, 11]: 0.62 nM
EC50 [4, 12]: 0.646 nM
Ki (A2A adenosine receptors [6]): 20.7 nM
t0.5 reversal of increase in coronary blood flow ([9]; 1 ug/kg/min intracoronary): 9.5 ± 0.8 min
t0.9 reversal of increase in coronary blood flow ([9]; 1 ug/kg/min intracoronary): 22.5 ± 1.6 min
Ki (A2A adenosine receptors [8]; Ki): 18 nM
Ki (A2A adenosine receptors [8]; pKi ± SEM): 17 nM
